Results published in the NIST ThermoML archive (doi:10.1021/je200575c).
Numbers after ± are expanded uncertainties.

Conditions: Liquid, Vibrating tube method

CCCCCCCCCCCCCC [tetradecane] gave a mass density (323.2 K, 1050 kPa) of 737 ± 2 kg/m3, a mass density (323.2 K, 2020 kPa) of 742 ± 2 kg/m3 and a mass density (323.2 K, 3160 kPa) of 743 ± 2 kg/m3. It also gave a mass density (323.2 K, 4070 kPa) of 744 ± 2 kg/m3, a mass density (323.2 K, 5060 kPa) of 745 ± 2 kg/m3 and a mass density (323.3 K, 5940 kPa) of 745 ± 2 kg/m3. For the same compound, the mass density (373.4 K, 2080 kPa) was 707 ± 2 kg/m3, the mass density (373.4 K, 4050 kPa) was 709 ± 2 kg/m3 and the mass density (373.4 K, 6010 kPa) was 710 ± 2 kg/m3. It also gave a mass density (373.4 K, 7070 kPa) of 711 ± 2 kg/m3, a mass density (373.5 K, 2970 kPa) of 708 ± 2 kg/m3 and a mass density (373.5 K, 5010 kPa) of 710 ± 2 kg/m3. The mass density (373.6 K, 1010 kPa) was 706 ± 2 kg/m3, the mass density (422.5 K, 1080 kPa) was 672 ± 2 kg/m3 and the mass density (422.5 K, 2140 kPa) was 673 ± 2 kg/m3. For the same compound, the mass density (422.6 K, 3020 kPa) was 675 ± 2 kg/m3, the mass density (422.6 K, 4020 kPa) was 676 ± 2 kg/m3 and the mass density (422.6 K, 5040 kPa) was 677 ± 2 kg/m3. For the same compound, the mass density (422.6 K, 6050 kPa) was 679 ± 2 kg/m3, the mass density (422.7 K, 7000 kPa) was 680 ± 2 kg/m3 and the mass density (422.7 K, 8000 kPa) was 681 ± 2 kg/m3.
